The record followed here is patent publication US20100022457A1 (Bristol-Myers Squibb Company, priority 2006, published 2010).

The nature of this data set: Solubility of the compound of SEQ ID NO:9 in the presence of Zn(II) / Zn adduct. Conditions: pH 6.8, 50 mM phosphate buffer. Type of data set: physicochemical. On the procedure: The concentration of the compound of SEQ ID NO:9 was analyzed by a Waters HPLC system (Waters 2690 Separations Module and Waters 996 Photodiode Array Detector). A gradient method was used where solvent A is 0.05% trifluoroacetic acid (TFA, Sigma) in water, and solvent B is 0.05% TFA in acetone nitrile (ACN, Sigma). Light at a wavelength of 220 nm was used to detect the absorption of the compound of SEQ ID NO:9.
Once the Zn/Compound of SEQ ID NO:9 adduct was formed, formulation development studies were conducted in order to evaluate the solubility of the compound of SEQ ID NO:9 in the presence of Zn(II). An excess amount of the compound of SEQ ID NO:9 was suspended in pH 6.8, 50 mM phosphate buffer. The suspension was then placed on an orbital shaker (Model, 100 RPM) at ambient temperature for 12 hours. The suspension was then centrifuged (Model, speed) and the saturated the clear supernatant of the compound of SEQ ID NO:9 was collected into 10 ml centrifuge tubes. A predetermined amount of zinc acetate solution (50 mM, pH 6.8 phosphate buffer) was added into the saturated solution and then precipitated. The concentration of the compound of SEQ ID NO:9 in solution was obtained by centrifuging the suspension and analyzing the clear supernatants by HPLC. […]

Where a SMILES comes first, the peptide text is derived from it. [ ]: non-standard residue; d: D form. Ala(6-(2-MePh)pyridin-3-yl) = Cc1ccccc1-c1ccc(C[C@H](N)C(=O)O)cn1; Bip(2'-Et-4'-OMe) = CCc1cc(OC)ccc1-c1ccc(C[C@H](N)C(=O)O)cc1; αMePhe(2-F) = C[C@](N)(Cc1ccccc1F)C(=O)O; Aib = CC(C)(N)C(=O)O

`CCc1cc(OC)ccc1-c1ccc(C[C@H](NC(=O)[C@H](CC(=O)O)NC(=O)[C@H](CO)NC(=O)[C@@H](NC(=O)[C@](C)(Cc2ccccc2F)NC(=O)[C@@H](NC(=O)CNC(=O)[C@H](CCC(=O)O)NC(=O)C(C)(C)NC(=O)[C@@H](N)Cc2c[nH]cn2)[C@@H](C)O)[C@@H](C)O)C(=O)N[C@@H](Cc2ccc(-c3ccccc3C)nc2)C(N)=O)cc1` [SEQ ID NO: 9] (H-H[Aib]EGT[αMePhe(2-F)]TSD[Bip(2'-Et-4'-OMe)][Ala(6-(2-MePh)pyridin-3-yl)]-NH2): the “apparent solubility with addition of Zn (II)” value is “continued to decrease until below the detection limit of HPLC”. In addition, where the note is “read-out: concentration of saturated solution (solubility)”, the solubility at 12 h turned out to be 17 µg/mL.
